Assay results: BigSolDB 2.1

Cc1nc(CCl)nc2ccccc12
solubility (mole fraction)
Settings	in THF	in acetone	in acetonitrile	in cyclohexane	in ethanol	in ethyl acetate	in isopropanol	in n-butanol	in n-hexane	in n-propanol
281.15 K	0.229	0.107	0.0488	0.0193	0.061	0.105	0.0429	0.05	0.00825	0.134
286.15 K	0.264	0.142	0.0692	0.0266	0.0771	0.136	0.0569	0.063	0.0115	0.145
291.15 K	0.297	0.188	0.096	0.0361	0.0969	0.173	0.0748	0.081	0.0146	0.158
296.15 K	0.339	0.244	0.13	0.0484	0.123	0.217	0.0964	0.101	0.019	0.172
301.15 K	0.374	0.297	0.174	0.0639	0.152	0.266	0.123	0.125	0.0232	0.186
306.15 K	0.411	0.373	0.22	0.0832	0.183	0.32	0.156	0.153	0.0289	0.201
311.15 K	0.452	0.449	0.276	0.107	0.219	0.378	0.196	0.186	0.0372	0.217
316.15 K	0.492	0.531	0.34	0.135	0.257	0.44	0.245	0.225	0.0476	0.234
321.15 K	0.528	0.603	0.411	0.168	0.297	0.503	0.304	0.27	0.0598	0.253
326.15 K	0.563	0.676	0.488	0.207	0.337	0.567	0.394	0.319	0.0751	0.273
331.15 K	0.604	0.74	0.559	0.249	0.389	0.63	0.467	0.361	0.093	0.294
